Laboratory results: US20060135571A1, “Imidazo(2,1-b)-1,3,4-thiadiazole sulfoxides and sulfones” (priority 2003, published 2006)
pIC50: −log10 of the molar value.

Key:
SCG neurons [1] = assay: In vitro protection of SCG neurons from cisplatin killing; type: cell-based, Sprague Dawley rats; conditions: Rattus norvegicus, Neuron; cisplatin 3 μg/mL, 48 hours, MTS viability; read-out: IC50, protection of SCG neurons against cisplatin killing
Procedure: The mechanism of Cisplatin's anti-cancer action is not fully understood, but is believed to involve DNA binding and cleavage. Cisplatin is highly toxic to neurons. The addition of cisplatin (3 μg/mL) to cultured SCG neurons induces apoptosis of upwards of 80% of the neurons. The addition of selected compounds of Formula I to the cellular media, concurrently with cisplatin, protects upwards of 100% of the neurons, at drug concentrations ranging from 1 to 50 μM (see Example 75).
(§1) SCG neurons were isolated from day 1 neonatal Sprague Dawley rats, plated at a cell density of 10,000 cells/well, and incubated in Biowhittaker Utraculture containing 1% Penstrep, 1% L-glutamine, 0.7% ARAC, 3% rat serum, and NGF (50 ng/mL, Calomone Labs) at 37° C., under a 5% CO2 atmosphere. After 5 days the cells were treated with compound and cisplatin (3 μg/mL). Viability was assessed 48 hours later using MTS (Promega) staining.

SCG neurons [2] = assay: In vitro protection of SCG neurons from Taxol killing; type: cell-based, Sprague Dawley rats; conditions: Rattus norvegicus, Neuron, read-out: IC50, rescue from Taxol killing of SCG neurons
Procedure: Taxol™ is regularly used in breast cancer chemotherapy. In cancer cells Taxol™ binds to the cyto-skeletal protein tubulin, thereby inhibiting normal microtubular assembly and inducing cellular apoptosis. Despite its potency as an anti-tumour agent, Taxol™ is also toxic to neurons, inducing dose limiting peripheral neuropathies. The addition of Taxol™ (100 ng/mL) to cultured SCG neurons induces the degradation or loss of upwards of 80% of the neurons. The addition of selected compounds of Formula I to the cellular media, concurrently with Taxol™, protects upwards of 100% of the neurons, at drug concentrations ranging from 1 to 50 μM (see Example 74).
as §1, with “Taxol™ (50 ng/mL).” for “cisplatin (3 μg/mL).”

[3] = Aqueous solubility in saline; type: physicochemical; conditions: saline or isotonic, acid salt
Procedure: Select compounds bearing a basic moiety display good aqueous solubility as the corresponding acid salt. For example, compound 56.2HCl is soluble at >100 mg/mL in saline, allowing for the ready application of these compounds via multiple routes of administration either oral or percutaneous.

[4] = system: Daoy medulloblastoma cells; assay: Sulforhodamine B assay, killing of Daoy medulloblastoma cells; type: cell-based
Procedure: (§2) Compound represented by Formula I were tested for anti-cancer properties using the sulforhodamine B assay. Human neuroblastomas SK-N-AS, and SH-SY5Y were plated in 96 well plates at a density of 15 000 cells/well. Daoy medulloblastoma cells were plated at a density of 2000 cells/well. Cells were cultured in RPMI supplemented with 5% fetal bovine serum and test compounds. After 72 hours of culture cell growth was assessed by sulforhodamine B. Cellular protein was precipitated and fixed with trichloroacetic acid and detected by incubation with sulforhodamine B. Bound dye solubilized in trizma base and was assessed by absorbance at 515 nm. Compound 28 caused either cell death or inhibited cellular proliferation of the SK-N-AS and SH-SY5Y neuroblastoma and daoy medulloblastoma cells with ED50s of 7, 5, and 2 µM, respectively.
(§3) Human neuroblastomas SK-N-AS, and SH-SY5Y were plated in 96 well plates at a density of 15 000 cells/well. Daoy medulloblastoma cells were plated at a density of 2000 cells/well. Cells were cultured in RPMI supplemented with 5% fetal bovine serum and test compound at various concentrations. After 72 hours of culture cell growth was assessed by sulforhodamine B. Cellular protein was precipitated and fixed with trichloroacetic acid and detected by incubation with sulforhodamine B. Bound dye solublized in trizma base and was assessed by absorbance at 515 nm.

SH-SY5Y = assay: Sulforhodamine B assay, killing of SH-SY5Y neuroblastoma cells; type: cell-based, Human
Procedure: as §2, §3

SK-N-AS = assay: Sulforhodamine B assay, killing of SK-N-AS neuroblastoma cells; type: cell-based, Human
Procedure: as §2, §3

SCG neurons [5] = assay: Protection of SCG neurons from anti-NGF killing; type: cell-based, Sprague Dawley rats; conditions: Rattus norvegicus, Neuron; anti-NGF antibody, 48 hours, Alamar Blue viability; read-out: IC(50), rescue from anti-NGF killing of SCG neurons
Procedure: Neurotrophins are critical to the growth, development, and survival of small fiber neurons of the PNS. […] In a typical experiment SCG neurons are cultured in the presence of NGF, which induces survival and neurite out-growth. After 5 days the NGF is removed by either the addition of anti-NGF polyclonal antibody (Sigma) or by repeated washings (4 times) with NGF free media, resulting in the apoptosis of up to 90% of the neurons after 48 hours, as measured by MTS staining. The addition of selected compounds of Formula I to the final cellular media provides upwards of 100% protection, at drug concentrations ranging from 1 to 50 μM (see Example 73).
SCG neurons were isolated from day 1 neonatal Sprague Dawley rats, plated at a cell density of 5,000 cells/well, and incubated in Biowhittaker Utraculture containing 1% Penstrep, 1% L-glutamine, 0.7% ARAC, 3% rat serum, and NGF (50 ng/mL, Calomone Labs), at 37° C., under a 5% CO2 atmosphere. After 4 days the cells were treated with anti-NGF antibody (Sigma). At this time compound was added and the cells were maintained serum and NGF free for 48 hours, at which time viability was assessed using Alamar Blue (Medicorp) staining.

[6] = Taxol 50 ng/mL, 48 hours, MTS viability

Structure (SMILES)	pIC50 (SCG neurons [2]; [6])	other results
O=S(=O)(Cc1ccccc1)c1nn2cc(-c3c(F)c(F)c(F)c(F)c3F)nc2s1 [Compound 2]	–	pIC50 (SCG neurons [1]): 6.10
O=S(=O)(Cc1ccccn1)c1nn2cc(-c3ccccc3)nc2s1 [Compound 6]	5.82	–
CN1CCCN(CC[S+]([O-])c2nn3cc(-c4ccccc4)nc3s2)CC1 (stereo not drawn) [Compound 56]	6.00	–
[O-][S+](Cc1ccccn1)c1nn2cc(-c3ccccc3)nc2s1 (stereo not drawn) [Compound 5]	6.00	–
CN(C)CC(=O)NCCS(=O)(=O)c1nn2cc(-c3ccc(F)cc3)nc2s1 [Compound 48]	6.10	–
CC[S+]([O-])c1nn2cc(-c3ccc(OCCO)cc3)nc2s1 (stereo not drawn) [Compound 32]	5.30	–
[O-][S+](Cc1ccncc1)c1nn2cc(-c3ccc(N4CCOCC4)cc3)nc2s1 (stereo not drawn) [Compound 30]	< 5.00	–
CC(=O)N1CCN(CC[S+]([O-])c2nn3c(-c4ccccc4)cnc3s2)CC1 (stereo not drawn) [Compound 65]	5.00	–
[O-][S+](CCN1CCC(Cc2ccccc2)CC1)c1nn2cc(-c3ccccc3)nc2s1 (stereo not drawn) [Compound 63]	–	pIC50 (SCG neurons [2]; 48 h): 5.00
O=S(=O)(Cc1ccncc1)c1nn2cc(-c3ccc(Oc4ccc(Cl)cc4)cc3)nc2s1 [Compound 18]	–	pIC50 (SCG neurons [1]): 6.52
[O-][S+](Cc1ccccc1)c1nn2cc(-c3c(F)c(F)c(F)c(F)c3F)nc2s1 (stereo not drawn) [Compound 1]	6.00	–
CC(=O)Nc1ccc(S(=O)(=O)c2nn3cc(-c4ccccn4)nc3s2)cc1 [Compound 52]	6.00	–
CC[S+]([O-])c1nn2cc(-c3cnccn3)nc2s1 (stereo not drawn) [Compound 40]	5.52	–
CS(=O)(=O)NCCS(=O)(=O)c1nn2cc(-c3ccccc3)nc2s1 [Compound 45]	–	pIC50 (SCG neurons [1]): 6.00
[O-][S+](CCc1ccccn1)c1nn2cc(-c3ccc(F)cc3)nc2s1 (stereo not drawn) [Compound 19]	5.22	pIC50 (SCG neurons [1]): 6.10
CC[S+]([O-])c1nn2cc(-c3ccccn3)nc2s1 (stereo not drawn) [Compound 37]	5.70	–
O=S(=O)(Cc1ccncc1)c1nn2cc(-c3ccccc3)nc2s1 [Compound 10]	6.10	–
O=S(=O)(Cc1cccnc1)c1nn2cc(-c3ccccc3)nc2s1 [Compound 8]	6.10	–
CN1CCCN(CC[S+]([O-])c2nn3cc(-c4ccccc4)nc3s2)CC1 (stereo not drawn) [Compound 56.2HCl]	–	solubility [3]: > 100 mg/mL
CCS(=O)(=O)c1nn2cc(-c3ccc(OCCO)cc3)nc2s1 [Compound 33]	6.00	–
CC(=O)N1CCN(CC[S+]([O-])c2nn3cc(-c4ccccc4)nc3s2)CC1 (stereo not drawn) [Compound 60]	6.00	–

Structure (SMILES)	pIC50 (SCG neurons [2]; [6])	other results
[O-][S+](CCN1CCNCC1)c1nn2cc(-c3ccccc3)nc2s1 (stereo not drawn) [Compound 58]	6.00	–
[O-][S+](CCN1CCOCC1)c1nn2cc(-c3ccc(F)cc3)nc2s1 (stereo not drawn) [Compound 28]	5.30	ED50, cell death or inhibited cellular proliferation ([4]; 72 hours, sulforhodamine B): 2000 nM; concentration at which the cell line is potently killed in vitro (as low as) ([4]; FIG. 1, sulforhodamine B): ≥ 5 µM; ED50, cell death or inhibited cellular proliferation (SH-SY5Y; 72 hours, sulforhodamine B): 5 µM; concentration at which the cell line is potently killed in vitro (as low as) (SH-SY5Y; FIG. 1, sulforhodamine B): ≥ 5 µM; pIC50 (SCG neurons [1]): 6.00; ED50, cell death or inhibited cellular proliferation (SK-N-AS; 72 hours, sulforhodamine B): 7000 nM; concentration at which the cell line is potently killed in vitro (as low as) (SK-N-AS; FIG. 1, sulforhodamine B): ≥ 5 µM
[O-][S+](CCN1CCC(O)CC1)c1nn2cc(-c3ccccc3)nc2s1 (stereo not drawn) [Compound 62]	5.00	–
CN1CCN(CCC[S+]([O-])c2nn3cc(-c4ccccc4)nc3s2)CC1 (stereo not drawn) [Compound 69]	6.00	pIC50 (SCG neurons [1]): 6.00
[O-][S+](CCc1ccccc1)c1nn2cc(-c3ccc(Oc4ccc(Cl)cc4)cc3)nc2s1 (stereo not drawn) [Compound 3]	5.15	pIC50 (SCG neurons [5]): 5.10
[O-][S+](CCN1CCCCC1)c1nn2cc(-c3ccccc3)nc2s1 (stereo not drawn) [Compound 61]	5.00	–
O=S(=O)(Cc1ccccn1)c1nn2cc(-c3cccc(F)c3)nc2s1 [Compound 14]	5.52	–
CN(C)CC[S+]([O-])c1nn2cc(-c3cccc(F)c3)nc2s1 (stereo not drawn) [Compound 29]	6.00	pIC50 (SCG neurons [1]): 5.52
[O-][S+](Cc1ccccn1)c1nn2cc(-c3ccc(Oc4ccc(Cl)cc4)cc3)nc2s1 (stereo not drawn) [Compound 15]	6.00	–
O=S(=O)(CCc1ccccc1)c1nn2cc(-c3ccc(Oc4ccc(Cl)cc4)cc3)nc2s1 [Compound 4]	6.00	pIC50 (SCG neurons [5]): 5.22
CC(C)(C)OC(=O)NCC[S+]([O-])c1nn2cc(-c3ccccn3)nc2s1 (stereo not drawn) [Compound 35]	5.70	–
CN1CCN(CC[S+]([O-])c2nn3cc(-c4ccc5c(c4)OCCCO5)nc3s2)CC1 (stereo not drawn) [Compound 71]	5.52	–
O=S(=O)(Cc1ccccn1)c1nn2cc(-c3ccc(Oc4ccc(Cl)cc4)cc3)nc2s1 [Compound 16]	6.30	pIC50 (SCG neurons [1]): 6.30
CN1CCN(CC[S+]([O-])c2nn3cc(-c4ccccc4)nc3s2)CC1 (stereo not drawn) [Compound 54]	5.52	–
[O-][S+](CCN1CCN(Cc2ccccc2)CC1)c1nn2c(-c3ccccc3)cnc2s1 (stereo not drawn) [Compound 66]	5.00	–
NCCS(=O)(=O)c1nn2cc(-c3ccccc3)nc2s1 [Compound 44]	5.70	pIC50 (SCG neurons [1]): 5.70
[O-][S+](Cc1ccncc1)c1nn2cc(-c3ccccc3)nc2s1 (stereo not drawn) [Compound 9]	6.10	–
CN1CCN(CC[S+]([O-])c2nn3cc(-c4ccc(F)cc4)nc3s2)CC1 (stereo not drawn) [Compound 70]	6.00	pIC50 (SCG neurons [1]): 6.00
[O-][S+](Cc1ccccn1)c1nn2cc(-c3cccc(F)c3)nc2s1 (stereo not drawn) [Compound 13]	6.00	–
[O-][S+](Cc1ccncc1)c1nn2cc(-c3ccc(Oc4ccc(Cl)cc4)cc3)nc2s1 (stereo not drawn) [Compound 17]	5.70	pIC50 (SCG neurons [1]): 6.52
